Series [1] is described as follows: Light stability (photobleaching) of the endoperoxide under continuous excitation light. Particulars: 5.0 μM aqueous solution, 0.1 M phosphate buffer (pH 7.4), 0.1% DMSO, excitation light 491 nm, 37° C., fluorescence at 520 nm. The class given is physicochemical. As to the method:
5.0 μM aqueous solutions of DMAX-EP (endoperoxide of Compound 11 in the above scheme) and DPAX-1-EP (endoperoxide of Compound 13 described in International Patent Publication WO99/51586, Example 1) [0.1 M phosphate buffer (pH 7.4) containing 0.1% DMSO as a cosolvent]were each placed in a fluorescent cell and exposed to an excitation light of 491 nm at 37° C. with stirring, and fluorescence was measured at 520 nm by using a fluorometer while the solution was continuously exposed to the excitation light.

A short description of series [2]: Measurement of singlet oxygen generated by naphthalene endoperoxide EP-1 (fluorescence). As to the method:
Singlet oxygen was generated continuously with time under a neutral condition at 37° C. in given amounts by using a naphthalene endoperoxide compound EP-1 (Saito, I, et al., J. Am. Chem. Soc., 107, pp. 6329-6334, 1985) as a singlet oxygen generation system. Fluorescence was measured in the presence of DMAX and DPAX-1 [100 mM phosphate buffer (pH 7.4), DMSO (0.1%)].

In the case of `CC12OOC(C)(c3ccccc31)c1cc(-c3c4ccc(=O)cc-4oc4cc(O)ccc34)c(C(=O)O)cc12` (stereo not shown) [DMAX-EP], the “Photobleaching, times slower than that of DPAX-1-EP” value in series [1] was determined as 54 times.
Consider `Cc1c2ccccc2c(C)c2cc(-c3c4ccc(=O)cc-4oc4cc(O)ccc34)c(C(=O)O)cc12` [DMAX], for which, in series [2] (100 mM phosphate buffer (pH 7.4), DMSO (0.1%), 37° C.), the “Increase of fluorescence intensity with 0.5 mM EP-1 compared with 10 mM EP-1 in the presence of DPAX-1” value is reported as “far larger”. The “Fluorescence intensity on generation of singlet oxygen” value in series [2] (EP-1 increased from 0.1 mM to 0.5 mM and to 1.0 mM, 100 mM phosphate buffer (pH 7.4), DMSO (0.1%), 37° C.) was “increase of fluorescence intensity dependent on the generated amount of singlet oxygen”. For the same molecule, the “Sensitivity for singlet oxygen compared with DPAX-1” value in series [2] (EP-1 singlet oxygen generation system, pH 7.4, 37° C.) was “much higher sensitivity”.

(Values after patent US20050123478A1, “Agent for measurement of singlet oxygen” (Daiichi Pure Chemicals Co., Ltd, priority 2000, published 2005).)
